The values that follow come from PubChem BioAssay (NCI).

“And” between values parts separate entries of the source, which are not always exact repeats. Equal values may be shown once.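 Values below derive from 48-hour exposures of cells grown in 96-well plates, with endpoints linearly interpolated between the two concentrations bracketing the appropriate inhibition level. GI50: concentration for 50% inhibition of growth. TGI marks complete inhibition of growth.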

Common to all, as to assay: inhibition of tumour cell growth, NCI panel, 48 h
The subject of test [1] is ACHN renal.
For test [2], the system named is DMS 114 small cell lung.
Test [3] relates to HCT-116 colon.
The test system of test [4] is LXFL 529 NSCLC.
The test system of test [5] is MALME-3M melanoma.
Test [6] has as its system SF-539 CNS.
For test [7], the system named is SK-OV-3 ovarian.
For test [8], the system named is SNB-19 CNS.
Test [9] relates to SNB-78 CNS.
In test [10] the test system is XF 498 CNS.
Test [11] has as its system HCT-15 colon.
In test [12] the test system is DU-145 prostate.

`COC(=O)c1oc([N+](=O)[O-])c(-c2ccccc2)c1-c1ccccc1`: the TGI in test [1], in test [2], in [3], in test [4], in test [5] and in [6] was greater than 100 µM each time. For the same molecule, the TGI in [7], in [8], in test [9] and in [10] was greater than 100 µM throughout.
In the case of `OCC(O)COc1ccc(F)cc1` (configuration not stated), the TGI in test [1], in test [2], in test [3], in test [11], in test [4] and in [5] was greater than 100 µM throughout. For the same molecule, the TGI in [6], in [7], in test [8], in [9] and in test [10] was greater than 100 µM each time.
With `C=CCC1=C2CCCCC2CCC1=O` (configuration not stated), the TGI in [1], in test [2], in [3], in test [11], in [4] and in test [5] was greater than 100 µM throughout. In addition, the TGI in test [6], in test [7], in test [8], in test [9] and in test [10] was greater than 100 µM each time.
In the case of `CC1=CC=C2C(C)(C)CC[C@@H]3OC(=O)[C@H]1[C@]23C`, the TGI in test [1], in test [2], in test [3], in test [4], in test [5] and in [6] was greater than 100 µM in each case. Besides, the TGI in test [7], in test [8], in test [9] and in test [10] was greater than 100 µM in each case.
In the case of `CC[C@H]1[C@@H](C)C=C[C@@H](C)N1S(=O)(=O)c1ccc(C)cc1`, the TGI in test [1] is greater than 100 µM; in test [2], 34.9 µM; in test [3], greater than 100 µM; in test [11] it was greater than 100 µM; in test [4] it was greater than 100 µM; in [5] it was greater than 100 µM. The TGI in test [6] was greater than 100 µM; in [7], greater than 100 µM; in [8], 35.3 µM; in [9] it was greater than 100 µM; in test [10], 42.4 µM.
In the case of `CCC(CO)COC(=O)/C=C/C(=O)OCC(CC)CO` (configuration not stated), the TGI in test [1], in test [2], in test [3], in [11], in test [4] and in test [5] was greater than 100 µM in each case. Further, the TGI in test [6], in [7], in [8], in [9] and in test [10] was greater than 100 µM throughout.
As for `CC[C@@]1(O)C(=O)OCc2c1cc1n(c2=O)Cc2cc3c(OC)cccc3nc2-1`, the GI50 was 0.00175 µM and < 0.215 µM in [1]; 0.00266 µM in test [12]; 0.00654 µM in test [6]; 0.00955 µM in [7]; 0.00642 µM in test [8]. The TGI in [2] is 0.28 µM; in [3], greater than 100 µM; in [11] it was greater than 60 µM; in test [4] it was greater than 23.1 µM; in [5], 1.89 µM; in test [6], 0.224 µM. For the same molecule, the TGI is 4.41 µM in [7], greater than 31.9 µM in test [8] and 0.876 µM in test [10].
On to `Cc1cc2c(=O)cc(-c3ccc(O)cc3)oc2c(C(=O)O)c1C`, for which the TGI in [1], in [2], in test [3], in test [11], in [4] and in test [5] was greater than 100 µM each time. Further, the TGI in [6], in test [7], in test [8], in [9] and in test [10] was greater than 100 µM each time.
In the case of `CCOC(=O)c1sc(Nc2cc(Cl)ccc2Cl)nc1C`, the TGI in [1], in test [2], in [3], in test [11], in test [4] and in [5] was greater than 100 µM in each case. In addition, the TGI in test [6], in [8], in test [9] and in [10] was greater than 100 µM in each case.
In the case of `O=C(O)COc1ccc2c3c1C(=O)CCC3CO2` (configuration not stated), the TGI in [1], in test [2], in [3], in [11], in test [4] and in [5] was greater than 100 µM each time. Moreover, the TGI in test [6], in [7], in [8], in test [9] and in test [10] was greater than 100 µM throughout.
As to `CN1C(=O)CNS1(=O)=O`, the TGI in [1], in test [2], in test [3], in [11], in [4] and in test [5] was greater than 100 µM in each case. Moreover, the TGI in [6], in test [7], in test [8], in test [9] and in test [10] was greater than 100 µM in each case.
As to `COC1OC(CO)C(O)C(NC(=O)N(C)N=O)C1O` (configuration not stated), the TGI in test [1], in test [2], in test [3], in [11], in test [4] and in test [5] was greater than 100 µM throughout. Further, the TGI in [6], in test [7], in [8], in test [9] and in test [10] was greater than 100 µM throughout.
Turning to `CN1C[C@@H]2CC(=O)CC[C@@H]2C[C@H]1C#N`, the TGI in test [1], in test [2], in test [3], in [11], in [4] and in [5] was greater than 100 µM throughout. Moreover, the TGI in test [7], in [8] and in [10] was greater than 100 µM each time.
`Cc1cc2c(=O)cc(-c3ccc(Cl)c(Cl)c3)oc2c(C(=O)O)c1C`: the TGI in test [1], in [2], in test [3], in test [11], in test [4] and in test [5] was greater than 100 µM throughout. The TGI in [6], in test [7], in test [8], in [9] and in test [10] was greater than 100 µM throughout.
Consider `c1ccc2c(CNCCCN3CCN(CCCNCc4cccc5ccccc45)CC3)cccc2c1`, for which the TGI was determined as 6.85 µM in [1]; 3.46 µM in test [2]; 2.83 µM in [3]; 3.47 µM in test [11]; 3.17 µM in test [4]; 3.56 µM in test [5]. Moreover, the TGI in [6] is 3.01 µM; in test [7], 5.22 µM; in test [9], 4.59 µM; in test [10], 3.17 µM.
`N#CCC(=O)N/N=C(/C(=O)Nc1ccccc1)C1C(=O)N(c2ccccc2)N=C1N` (configuration not stated): the TGI in test [1], in test [2], in [3], in [11], in [4] and in test [5] was greater than 100 µM throughout. For the same molecule, the TGI in test [6], in test [7], in test [8], in test [9] and in [10] was greater than 100 µM in each case.
On to `CC(=O)Nc1ccc(S(=O)(=O)N/N=C/c2cc(I)cc([N+](=O)[O-])c2O)cc1`, for which the TGI in [1], in [2], in test [11], in [5], in test [7] and in [8] was greater than 100 µM in each case. Moreover, the TGI was greater than 100 µM in test [9] and 74.6 µM in test [10].
Turning to `Cc1cc2c(=O)cc(-c3ccc(Cl)cc3Cl)oc2c(C(=O)O)c1C`, the TGI in test [1], in test [2], in [3], in test [11], in test [4] and in test [5] was greater than 100 µM each time. Moreover, the TGI in test [6], in [7], in [8], in test [9] and in test [10] was greater than 100 µM in each case.
Consider `Cc1ccccc1C(C#N)/C(=N/NC(N)=S)C(=O)Nc1c(C)cccc1C` (configuration not stated), for which the TGI in test [1], in test [2], in test [3], in [4], in test [5] and in test [8] was greater than 100 µM each time. In addition, the TGI in test [9] and in test [10] was greater than 100 µM throughout.
Regarding `Cc1ccc(S(=O)OC2c3ccccc3Cc3ccccc32)cc1` (configuration not stated), the TGI was determined as 49 µM in [1]; 34.8 µM in test [2]; 35.8 µM in test [3]; 44.5 µM in [11]; 31.1 µM in test [4]; 26.7 µM in test [5]. The TGI amounted to 40.2 µM in test [6]; 41.9 µM in test [7]; 59 µM in [8]; 46.1 µM in [9]; 30.3 µM in test [10].
Consider `CCOc1ccc(N=C2NC(=O)C(CC(=O)Nc3ccc(Cl)cc3Cl)S2)cc1` (configuration not stated), for which the TGI in test [1], in test [2], in test [11], in test [4], in [5] and in [6] was greater than 100 µM throughout. Moreover, the TGI in [7], in [8], in [9] and in test [10] was greater than 100 µM in each case.
Consider `CNC(=O)N(CCCC(NC(C)=O)C(=O)NCc1ccccc1)Cc1ccccc1` (configuration not stated), for which the TGI in test [1], in test [2], in [3], in test [11], in test [4] and in test [5] was greater than 100 µM in each case. Also, the TGI in test [6], in test [7], in test [8], in test [9] and in test [10] was greater than 100 µM in each case.
For `Cc1ccc(NC(=O)CC2SC(=Nc3cccc(Cl)c3C)NC2=O)cc1` (configuration not stated), the TGI in test [1] is greater than 100 µM; in [2] it was 96.6 µM; in test [11] it was greater than 100 µM; in test [4] it was greater than 100 µM; in test [5] it was greater than 100 µM; in test [6] it was greater than 100 µM. The TGI in [7], in test [8], in test [9] and in [10] was greater than 100 µM throughout.
